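Tested at 5 concentrations; 48 h exposure; 96-well plates; endpoints linearly interpolated, else capped at highest concentration. GI50 = concentration required for 50% inhibition of growth.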 The source made the active and inactive calls. Cut-off read from the data, not from the text of the source: active = GI50 up to about 1.1 µM and inactive = higher.
Columns and labels:
Experiment in all cases: NCI tumour cell line growth inhibition, 48 h
SF-539 = tested on: SF-539
SW-620 = tested on: SW-620
HOP-62 = tested on: HOP-62
SNB-19 = tested on: SNB-19
OVCAR-4 = tested on: OVCAR-4
OVCAR-8 = tested on: OVCAR-8
RXF 393 = tested on: RXF 393
SK-MEL-28 = tested on: SK-MEL-28
MOLT-4 = tested on: MOLT-4
OVCAR-3 = tested on: OVCAR-3
SNB-75 = tested on: SNB-75
KM12 = tested on: KM12
T47D = tested on: T47D
HOP-92 = tested on: HOP-92
SK-MEL-5 = tested on: SK-MEL-5
IGROV-1 = tested on: IGROV-1
CAKI-1 = tested on: CAKI-1
HCC 2998 = tested on: HCC 2998
HL-60 = tested on: HL-60
DU-145 = tested on: DU-145
ACHN = tested on: ACHN
Hs-578T = tested on: Hs-578T
COLO 205 = tested on: COLO 205
RPMI-8226 = tested on: RPMI-8226
OVCAR-5 = tested on: OVCAR-5
NCI-H522 = tested on: NCI-H522
Malme-3M = tested on: Malme-3M
BT-549 = tested on: BT-549
786-0 = tested on: 786-0
NCI-H23 = tested on: NCI-H23
HCT-15 = tested on: HCT-15
TK-10 = tested on: TK-10
HT-29 = tested on: HT-29
CCRF-CEM = tested on: CCRF-CEM
MDA-N = tested on: MDA-N
A498 = tested on: A498
K562 = tested on: K562
PC-3 = tested on: PC-3
U-251 = tested on: U-251
NCI-H460 = tested on: NCI-H460
A549 = tested on: A549
MDA-MB-231 = tested on: MDA-MB-231
UACC-62 = tested on: UACC-62
UACC-257 = tested on: UACC-257
MCF7 = tested on: MCF7
NCI/ADR-RES = tested on: NCI/ADR-RES
SF-268 = tested on: SF-268
HCT-116 = tested on: HCT-116
M14 = tested on: M14
UO-31 = tested on: UO-31
EKVX = tested on: EKVX
SF-295 = tested on: SF-295
LOX IMVI = tested on: LOX IMVI
SK-OV-3 = tested on: SK-OV-3
SN12C = tested on: SN12C
SR = tested on: SR
MDA-MB-435 = tested on: MDA-MB-435
NCI-H226 = tested on: NCI-H226
SK-MEL-2 = tested on: SK-MEL-2

Measured: GI50

CCOC(=O)Nc1cc2c(c(N)n1)N=C(c1ccccc1)CN2
inactive: OVCAR-4 28100 nM | SK-MEL-28 14500 nM | T47D 37300 nM | Malme-3M 16400 nM | TK-10 10700 nM | UACC-257 12800 nM
< 10 nM: HCT-15
active: SF-539 < 10 nM | SW-620 < 10 nM | HOP-62 < 10 nM | SNB-19 < 10 nM | OVCAR-8 < 10 nM | RXF 393 < 0.1 nM | MOLT-4 < 10 nM | OVCAR-3 < 10 nM | SNB-75 < 10 nM | KM12 < 10 nM | HOP-92 < 10 nM | SK-MEL-5 < 10 nM | IGROV-1 < 10 nM | CAKI-1 < 10 nM | HCC 2998 < 10 nM | HL-60 < 0.1 nM | DU-145 < 10 nM | ACHN < 10 nM | Hs-578T < 0.1 nM | COLO 205 < 10 nM | RPMI-8226 < 10 nM | OVCAR-5 < 10 nM | NCI-H522 < 10 nM | BT-549 < 10 nM | 786-0 < 10 nM | NCI-H23 < 10 nM | HT-29 < 10 nM | CCRF-CEM < 10 nM | MDA-N < 10 nM | A498 310 nM | K562 < 10 nM | PC-3 < 10 nM | U-251 < 10 nM | NCI-H460 < 10 nM | A549 < 10 nM | MDA-MB-231 < 10 nM | UACC-62 < 0.1 nM | MCF7 31.7 nM | NCI/ADR-RES < 0.1 nM | SF-268 < 10 nM | HCT-116 < 10 nM | M14 < 10 nM | UO-31 < 19.4 nM | EKVX < 18.7 nM | SF-295 < 10 nM | LOX IMVI < 10 nM | SK-OV-3 52.7 nM | SN12C < 10 nM | SR < 10 nM | MDA-MB-435 < 10 nM

COc1ccc2[nH]cc(CN3CCC(CO)(c4ccccc4)CC3)c2c1
inactive: SW-620 21200 nM | HOP-62 19700 nM | SNB-19 > 100000 nM | OVCAR-4 42200 nM | OVCAR-8 52700 nM | RXF 393 71400 nM | SK-MEL-28 17900 nM | MOLT-4 21000 nM | OVCAR-3 48200 nM | SNB-75 27000 nM | KM12 17900 nM | T47D 20900 nM | SK-MEL-5 14100 nM | IGROV-1 38500 nM | HCC 2998 21000 nM | NCI-H226 43500 nM | HL-60 18700 nM | DU-145 45200 nM | ACHN 20200 nM | Hs-578T 25700 nM | COLO 205 18300 nM | RPMI-8226 22600 nM | OVCAR-5 68500 nM | NCI-H522 18900 nM | Malme-3M 25800 nM | BT-549 78900 nM | 786-0 15300 nM | SK-MEL-2 23200 nM | NCI-H23 91600 nM | TK-10 95900 nM | HT-29 23100 nM | CCRF-CEM 21600 nM | MDA-N 18700 nM | A498 45800 nM | K562 17600 nM | PC-3 31100 nM | U-251 30300 nM | NCI-H460 30000 nM | A549 22500 nM | MDA-MB-231 26700 nM | UACC-62 25900 nM | UACC-257 17500 nM | MCF7 20800 nM | NCI/ADR-RES > 100000 nM | SF-268 11900 nM | HCT-116 15000 nM | M14 17300 nM | UO-31 22400 nM | EKVX 8280 nM | SF-295 16100 nM | LOX IMVI 16800 nM | SN12C 72800 nM | SR 22100 nM | MDA-MB-435 20600 nM
active: SK-OV-3 530 nM
35100 nM: HCT-15

c1ccc(CSSSCc2ccccc2)cc1 [DIBENZYL TRISULFIDE]
active: SW-620 115 nM | HOP-62 964 nM | MOLT-4 139 nM | OVCAR-3 423 nM | HL-60 378 nM | DU-145 1120 nM | RPMI-8226 313 nM | NCI-H522 363 nM | 786-0 463 nM | SK-MEL-2 1080 nM | HT-29 1000 nM | CCRF-CEM 26.9 nM | K562 127 nM | MCF7 385 nM | HCT-116 272 nM | LOX IMVI 621 nM | SN12C 912 nM | MDA-MB-435 568 nM
inactive: SNB-19 15300 nM | OVCAR-4 2300 nM | OVCAR-8 1150 nM | RXF 393 1720 nM | SK-MEL-28 20700 nM | SNB-75 7180 nM | KM12 2670 nM | T47D 19800 nM | SK-MEL-5 1880 nM | IGROV-1 2800 nM | CAKI-1 1410 nM | HCC 2998 5580 nM | ACHN 1690 nM | Hs-578T 8320 nM | COLO 205 1870 nM | OVCAR-5 3620 nM | Malme-3M 7360 nM | BT-549 3270 nM | NCI-H23 2400 nM | TK-10 1620 nM | MDA-N 1250 nM | A498 18600 nM | PC-3 1320 nM | U-251 2010 nM | NCI-H460 1700 nM | A549 5090 nM | MDA-MB-231 2480 nM | UACC-62 2150 nM | UACC-257 5570 nM | NCI/ADR-RES 1860 nM | SF-268 3570 nM | M14 2270 nM | UO-31 6550 nM | EKVX 6520 nM | SF-295 6580 nM | SK-OV-3 3610 nM | SR 4060 nM
581 nM: HCT-15
